21 compounds from ChEMBL document CHEMBL1148936, “Benzoic acid derivatives from Piper species and their fungitoxic activity against Cladosporium cladosporioides and C. sphaerospermum” (2004) can be followed below.

Assay [1] relates to Cladosporium cladosporioides. The experiment in a line: Antifungal activity against Cladosporium cladosporioides at 100 ug after 72 hrs by TLC. It is filed as functional, organism-based.
Assay [2] has as its system Cladosporium sphaerospermum. Description: Antifungal activity against Cladosporium sphaerospermum at 100 ug after 72 hrs by TLC. Format: functional, organism-based.
Assay [3] concerns Cladosporium cladosporioides. Description: Antifungal activity against Cladosporium cladosporioides assessed as minimum concentration required to inhibit growth after 72 hrs by TLC. It is filed as functional.
Assay [4] concerns Cladosporium sphaerospermum. Description: Antifungal activity against Cladosporium sphaerospermum assessed as minimum concentration required to inhibit growth after 72 hrs by TLC. Format: functional.

The source made the active and inactive calls. The rule behind the calls is not given here.

As to `COc1ccc(C(=O)O)cc1C/C=C(\C)CCC=C(C)C`, the result in assay [1] and in assay [2] was inactive.

`O=C1C[C@@H](c2ccccc2)Oc2cc(O)cc(O)c21` [PINOCEMBRIN]: the Activity in assay [3] and in assay [4] was 1 µg each time.

NYSTATIN: the Activity in assay [3] and in assay [4] was 1 µg each time.

Regarding `COc1cc(O)c2c(c1)O[C@H](c1ccc(O)cc1)CC2=O` [SAKURANETIN], the Activity in assay [3] and in assay [4] was 1 µg each time.

Turning to `COC(=O)c1cc(O)c2c(c1)C=CC(C)(C)O2`, the Activity in assay [3] and in assay [4] was 5 µg each time.

`COC(=O)c1ccc2c(c1)C=CC(C)(C)O2`: the Activity in assay [3] and in assay [4] was 5 µg each time.

For `Clc1ccc(COC(Cn2ccnc2)c2ccc(Cl)cc2Cl)c(Cl)c1` (configuration not stated) [MICONAZOLE], the Activity in assay [3] and in assay [4] was 1 µg each time.

Turning to `CC(C)=CCC/C(C)=C/C(=O)c1cc(O)ccc1O`, the Activity in assay [3] and in assay [4] was 1 µg each time.

For `COC(=O)c1ccc(O)c(CC=C(C)C)c1`, the Activity in assay [3] and in assay [4] was 1 µg each time.

For the compound `CC(C)=CCCC(C)(O)CC(=O)c1cc(C(=O)O)ccc1O` (configuration not stated) [CRASSINERVIC ACID], the Activity in assay [3] and in assay [4] was 0.5 µg in each case.

For the compound `COC(=O)c1cc2c(c(CC=C(C)C)c1)OC(C)(C)C=C2`, the Activity in assay [3] and in assay [4] was 0.1 µg each time.

Regarding `CC1(C)C=Cc2cc(C(=O)O)ccc2O1`, the Activity in assay [3] and in assay [4] was 5 µg throughout.

On to `COC(=O)c1ccc(O)c(CC(O)C(C)(C)O)c1` (configuration not stated) [HOSTMANIANE], for which the Activity in assay [3] and in assay [4] was 0.5 µg each time.

On to `COc1cc(CCC(=O)O)cc(OC)c1OC`, for which the Activity in assay [3] and in assay [4] was 10 µg each time.

Consider `CC(C)=CCC/C(C)=C/Cc1cc(C(=O)O)ccc1O`, for which the Activity in assay [3] and in assay [4] was 5 µg each time.

`COC(=O)c1ccc(O)c([C@@H]2c3c(OC)cc(O)c(C(=O)CCc4ccccc4)c3O[C@H]2C(C)(C)O)c1`: the result in assay [1] and in assay [2] was inactive.

As for `COC(=O)c1cc(C(=O)C=C(C)C)ccc1OC` [ADUNCUMENE], the Activity in assay [3] and in assay [4] was 5 µg each time.

For the compound `CC(C)=CCC[C@@]1(C)C=Cc2cc(C(=O)O)cc(CC=C(C)C)c2O1`, the Activity in assay [3] and in assay [4] was 10 µg in each case.

On to `COC(=O)c1ccc(O)c(C(=O)C=C(C)C)c1`, for which the outcome in assay [1] and in assay [2] was inactive.

`COc1cc(O)c(C(=O)CCc2ccccc2)c(O)c1`: the outcome in assay [1] and in assay [2] was inactive.

Consider `C=C(C)C(O)Cc1cc(C(=O)OC)ccc1O` (configuration not stated), for which the Activity in assay [3] and in assay [4] was 5 µg each time.
